# Activity calls are given as the source filed them. No cut-off for these calls is given here.
# What was measured:
# Escherichia coli [1] = assay: Antimicrobial activity against Escherichia coli expressing beta-lactamase KPC-2 by CLSI broth microdilution method; assay type: functional
# Escherichia coli [2] = assay: Antimicrobial activity against Escherichia coli expressing beta-lactamase VEB-1 by CLSI broth microdilution method; assay type: functional
# Escherichia coli [3] = assay: Antimicrobial activity against Escherichia coli expressing beta-lactamase NDM-1 by CLSI broth microdilution method; assay type: functional
# Escherichia coli [4] = assay: Antimicrobial activity against Escherichia coli expressing beta-lactamase NDM-5 by CLSI broth microdilution method; assay type: functional
# [5] = Chemical stability in pH 7.4 potassium phosphate buffer assessed as half life for compound hydrolysis at 37 degC by UPLC and mass spectrometry; assay type: physicochemical
# Beta-lactamase SHV-12 = target: T1, Beta-lactamase SHV-12 (Escherichia coli, UniProt Q7X574); assay: Stability assessed as assessed as Escherichia coli beta-lactamase SHV-12-mediated compound hydrolysis by measuring molar enthalpy of hydrolysis at 1 mM by isothermal titration calorimetry; assay type: ADME; details: 1000 µM
# T1 sequence (Q7X574 whole entry): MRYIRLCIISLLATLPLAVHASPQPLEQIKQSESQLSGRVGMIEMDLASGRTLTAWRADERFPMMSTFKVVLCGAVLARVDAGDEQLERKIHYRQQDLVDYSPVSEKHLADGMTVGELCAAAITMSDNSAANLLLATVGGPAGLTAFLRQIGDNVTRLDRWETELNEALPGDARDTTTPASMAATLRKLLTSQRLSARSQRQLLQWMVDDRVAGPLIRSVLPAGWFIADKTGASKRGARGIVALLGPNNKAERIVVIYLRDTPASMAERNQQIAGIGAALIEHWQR
# [6] = Stability assessed as assessed as Escherichia coli beta-lactamase CTX-M-15-mediated compound hydrolysis by measuring molar enthalpy of hydrolysis at 1 mM by isothermal titration calorimetry; assay type: ADME; details: 1000 µM
# [7] = Stability assessed as assessed as Escherichia coli beta-lactamase KPC-2-mediated compound hydrolysis by measuring molar enthalpy of hydrolysis at 1 mM by isothermal titration calorimetry; assay type: ADME; details: 1000 µM
# Escherichia coli [8] = assay: microbe, parasite or virus in culture
# Escherichia coli [9] = assay: microbe, parasite or virus in culture; remark: listed apart in the source
# Escherichia coli [10] = assay: microbe, parasite or virus in culture; remark: listed apart in the source
# Escherichia coli [11] = assay: microbe, parasite or virus in culture; remark: listed apart in the source
# Escherichia coli [12] = assay: microbe, parasite or virus in culture; remark: listed apart in the source
# Escherichia coli [13] = assay: microbe, parasite or virus in culture; remark: listed apart in the source
# Escherichia coli [14] = assay: microbe, parasite or virus in culture; remark: listed apart in the source
# Escherichia coli [15] = assay: microbe, parasite or virus in culture; remark: listed apart in the source
# Escherichia coli [16] = assay: microbe, parasite or virus in culture; remark: listed apart in the source
# Escherichia coli [17] = assay: microbe, parasite or virus in culture; remark: listed apart in the source
# Escherichia coli [18] = assay: microbe, parasite or virus in culture; remark: listed apart in the source
# Escherichia coli [19] = assay: microbe, parasite or virus in culture; remark: listed apart in the source
# Escherichia coli [20] = assay: microbe, parasite or virus in culture; remark: listed apart in the source
# Escherichia coli [21] = assay: microbe, parasite or virus in culture; remark: listed apart in the source
# Escherichia coli [22] = assay: microbe, parasite or virus in culture; remark: listed apart in the source
# Escherichia coli [23] = assay: microbe, parasite or virus in culture; remark: listed apart in the source
# Escherichia coli [24] = assay: microbe, parasite or virus in culture; remark: listed apart in the source
# Escherichia coli [25] = assay: microbe, parasite or virus in culture; remark: listed apart in the source
# Escherichia coli [26] = assay: microbe, parasite or virus in culture; remark: listed apart in the source
# Escherichia coli [27] = assay: microbe, parasite or virus in culture; remark: listed apart in the source
# Escherichia coli [28] = assay: microbe, parasite or virus in culture; remark: listed apart in the source
# Escherichia coli [29] = assay: microbe, parasite or virus in culture; remark: listed apart in the source
# Escherichia coli [30] = assay: microbe, parasite or virus in culture; remark: listed apart in the source
# Escherichia coli [31] = assay: microbe, parasite or virus in culture; remark: listed apart in the source
# Escherichia coli [32] = assay: microbe, parasite or virus in culture; remark: listed apart in the source
# Escherichia coli [33] = assay: microbe, parasite or virus in culture; remark: listed apart in the source
# Escherichia coli [34] = assay: microbe, parasite or virus in culture; remark: listed apart in the source
# Escherichia coli [35] = assay: microbe, parasite or virus in culture; remark: listed apart in the source
# Escherichia coli [36] = assay: microbe, parasite or virus in culture; remark: listed apart in the source
# Escherichia coli [37] = assay: microbe, parasite or virus in culture; remark: listed apart in the source
# Escherichia coli [38] = assay: microbe, parasite or virus in culture; remark: listed apart in the source
# Escherichia coli [39] = assay: microbe, parasite or virus in culture; remark: listed apart in the source
# Escherichia coli [40] = assay: microbe, parasite or virus in culture; remark: listed apart in the source
# Escherichia coli [41] = assay: microbe, parasite or virus in culture; remark: listed apart in the source
# Escherichia coli [42] = assay: microbe, parasite or virus in culture; remark: listed apart in the source
# Escherichia coli [43] = assay: microbe, parasite or virus in culture; remark: listed apart in the source
# Escherichia coli [44] = assay: microbe, parasite or virus in culture; remark: listed apart in the source
# Escherichia coli [45] = assay: microbe, parasite or virus in culture; remark: listed apart in the source
# Escherichia coli [46] = assay: microbe, parasite or virus in culture; remark: listed apart in the source
# Escherichia coli [47] = assay: microbe, parasite or virus in culture; remark: listed apart in the source
# [48] = AUC in mouse at […], iv; assay type: ADME, organism-based; details: in vivo
# [49] = AUC in rat at 10 mg/kg, iv; assay type: ADME, organism-based; details: in vivo
# [50] = AUC in dog at 10 mg/kg, iv; assay type: ADME, organism-based, Canis lupus familiaris; details: in vivo
# [51] = Drug excretion in rat assessed as unchanged parent drug level at 10 mg/kg, iv; assay type: ADME, organism-based; details: in vivo, read-out: Drug excretion
# [52] = Drug excretion in dog assessed as unchanged parent drug level at 10 mg/kg, iv; assay type: ADME, organism-based, Canis lupus familiaris; details: in vivo, read-out: Drug excretion
# Klebsiella pneumoniae = assay: Antimicrobial activity against Klebsiella pneumoniae expressing beta-lactamase NDM-1 infected in neutropenic mouse thigh infection model assessed as compound dose causing 1 log10 CFU reduction in bacterial load dosed subcutaneously every 4 hrs; assay type: functional
smiles,measurement,setting,value
NC(=O)OC[C@@H]1[C@H](NC(=O)/C(=N\OCC(=O)O)c2csc(N)n2)C(=O)N1S(=O)(=O)O [CARUMONAM],MIC,Escherichia coli [1],1 µg/mL
same,MIC,Escherichia coli [2],> 64 µg/mL
same,MIC,Escherichia coli [3],0.125 µg/mL
same,MIC,Escherichia coli [4],0.125 µg/mL
same,half-life,[5],> 83.3 days
same,Stability,Beta-lactamase SHV-12,Unstable
same,Stability,[6],Stable
same,Stability,[7],Stable
same,MIC,Escherichia coli [8],0.06 to 0.125 µg/mL
same,MIC,Escherichia coli [9],0.125 µg/mL
same,MIC,Escherichia coli [10],0.125 µg/mL
same,MIC,Escherichia coli [11],0.125 µg/mL
same,MIC,Escherichia coli [12],0.125 µg/mL
same,MIC,Escherichia coli [13],0.125 µg/mL
same,MIC,Escherichia coli [14],32 µg/mL
same,MIC,Escherichia coli [15],4 µg/mL
same,MIC,Escherichia coli [16],0.125 µg/mL
same,MIC,Escherichia coli [17],> 64 µg/mL
same,MIC,Escherichia coli [18],> 64 µg/mL
same,MIC,Escherichia coli [19],64 µg/mL
same,MIC,Escherichia coli [20],> 64 µg/mL
same,MIC,Escherichia coli [21],0.125 µg/mL
same,MIC,Escherichia coli [22],64 µg/mL
same,MIC,Escherichia coli [23],> 64 µg/mL
same,MIC,Escherichia coli [24],4 µg/mL
same,MIC,Escherichia coli [25],0.5 µg/mL
same,MIC,Escherichia coli [26],4 µg/mL
same,MIC,Escherichia coli [27],0.5 µg/mL
same,MIC,Escherichia coli [28],0.5 µg/mL
same,MIC,Escherichia coli [29],0.125 µg/mL
same,MIC,Escherichia coli [30],0.125 µg/mL
same,MIC,Escherichia coli [31],0.125 µg/mL
same,MIC,Escherichia coli [32],0.125 µg/mL
same,MIC,Escherichia coli [33],4 µg/mL
same,MIC,Escherichia coli [34],16 µg/mL
same,MIC,Escherichia coli [35],4 µg/mL
same,MIC,Escherichia coli [36],8 µg/mL
same,MIC,Escherichia coli [37],4 µg/mL
same,MIC,Escherichia coli [38],0.5 µg/mL
same,MIC,Escherichia coli [39],16 µg/mL
same,MIC,Escherichia coli [40],0.125 µg/mL
same,MIC,Escherichia coli [41],0.125 µg/mL
same,MIC,Escherichia coli [42],0.125 µg/mL
same,MIC,Escherichia coli [43],0.125 µg/mL
same,MIC,Escherichia coli [44],2 µg/mL
same,MIC,Escherichia coli [45],1 µg/mL
same,MIC,Escherichia coli [46],0.125 µg/mL
same,MIC,Escherichia coli [47],1 µg/mL
C[C@H]1[C@H](NC(=O)/C(=N\OC(C)(C)C(=O)O)c2csc(N)n2)C(=O)N1S(=O)(=O)O [AZTREONAM],Stability,Beta-lactamase SHV-12,Unstable
same,Stability,[6],Unstable
same,Stability,[7],Unstable
same,AUC,[48],5000 ng·h/mL
same,AUC,[49],13000 ng·h/mL
same,AUC,[50],13000 ng·h/mL
same,dose excreted,[51],40%
same,dose excreted,[52],53%
same,Activity,Klebsiella pneumoniae,inactive
same,MIC,Escherichia coli [9],16 µg/mL
same,MIC,Escherichia coli [11],1 µg/mL
same,MIC,Escherichia coli [17],256 µg/mL
same,MIC,Escherichia coli [18],> 1020 µg/mL
same,MIC,Escherichia coli [19],128 µg/mL
same,MIC,Escherichia coli [25],16 µg/mL
same,MIC,Escherichia coli [26],8 µg/mL
same,MIC,Escherichia coli [27],8 µg/mL
same,MIC,Escherichia coli [28],16 µg/mL
same,MIC,Escherichia coli [33],4 µg/mL
same,MIC,Escherichia coli [34],1 µg/mL
same,MIC,Escherichia coli [35],4 µg/mL
same,MIC,Escherichia coli [36],8 µg/mL
same,MIC,Escherichia coli [37],4 µg/mL
same,MIC,Escherichia coli [38],1 µg/mL
same,MIC,Escherichia coli [44],16 µg/mL
same,MIC,Escherichia coli [45],1 µg/mL
same,MIC,Escherichia coli [47],8 µg/mL

# Reference: ChEMBL document CHEMBL4184210, “Optimization of novel monobactams with activity against carbapenem-resistant Enterobacteriaceae - Identification of LYS228” (Bioorg Med Chem Lett, 2018)
